Source: patent US6410588B1, “Use of cannabinoids as anti-inflammatory agents” (priority 1998, dated 2002)
Entries after “also recorded” stand apart in the source; their conditions may differ.

How the values were obtained:
spleen cells = assay: mixed leukocyte reaction (MLR); assay type: cell-based, mouse (BALB/c); conditions: above 4 μg/ml CBD
Experimental: Cultures were pulsed with ^3H-thymidine and harvested 18 hours later.
Spleen cells (1×10^6/well) were co-cultured in triplicate wells of flat-bottom microtiter plates (Nunc), with an equal number of irradiated ([…]) syngeneic or allogeneic splenocytes in a final volume of 200 μl/well. After 3-days incubation, the cells were labelled with ^3H-thymidine (1 μCi/well) and harvested, following an additional incubation of 18 h, as described above.

TNFα = conditions: cited from earlier work
TNF = assay: human rheumatoid synovial cell TNF production (ELISA); assay type: cell-based; conditions: for TNF, mean: 48 hours culture
Experimental: (§1) Synovial membrane tissue was obtained from a patient fulfilling the revised American College of Rheumatology criteria for rheumatoid arthritis who underwent joint replacement surgery. Synovial cell cultures were prepared as described. Briefly, synovial membrane tissue was digested with collagenase type A (1 mg/ml) and DNAase I (0.15 mg/ml) in RPMI 1640 containing 5% FCS for 2 hours at 37° C.
(§2) Similarly, rheumatoid synovial cells spontaneously produce cytokines when cultured in vitro. […] With restricted number of human synovial cells in this sample, the optimal dose for inhibiting TNFα may have been missed.

[1] = system: collagen induced arthritis (CIA); assay: histological analysis of hind paw joints in CIA; assay type: in vivo, mouse; conditions: for joints completely protected: hind paws, day 10, control: no normal joints
Experimental: The hind paws were assessed as normal, mildly affected or severely destroyed.
Hind paws and knee joints were removed post mortem on the tenth day of arthritis, fixed in formalin and decalcified in 5% EDTA. Paws and knees were then embedded in paraffin, sectioned and stained with haematoxylin and eosin. Arthritic changes in the ankle, the metatarsophalangeal joints, the proximal interphalangeal and the distal interphalangeal joints were scored blindly as mild (mild synovial hyperplasia), moderate (pannus formulation and erosions limited to the cartilage-pannus junction), or severe (=extended bone and cartilage erosions with loss of joint architecture).

IL-6 = assay: human rheumatoid synovial cell IL-6 production (ELISA); assay type: cell-based; conditions: for IL-6, mean: 48 hours culture
Experimental: as §1, §2

schizophrenia = conditions: in vivo; cited from earlier work
IL-10 = assay: human rheumatoid synovial cell IL-10 production (ELISA); assay type: cell-based; conditions: for IL-10, mean: 48 hours culture
Experimental: as §1, §2

[2] = system: animal models predictive of antipsychotic activity; conditions: in vivo; cited from earlier work
CB2 = CB2 (Homo sapiens, UniProt P34972); conditions: cited from earlier work
anticonvulsant effects = conditions: in vivo; cited from earlier work
IFNγ production = assay: IFNγ release by PHA-stimulated human PBMC; assay type: cell-based; conditions: PHA 5 μg/ml 72 hours, mean ± SEM
Experimental: (§3) CBD was dissolved in ethanol/DMSO.
(§4) Peripheral blood mononuclear cells (PBMC) were isolated from the whole blood of healthy donors by Ficoll Hypaque gradient. […] After this 6 hour pretreatment period, the cells were stimulated with either LPS from Salmonella typhimirium, 10 ng/ml, for 24 hours (for TNF and IL-1β) or with PHA, 5 μg/ml, for 72 hours (for IFNγ) Viability of the PBMC was assessed with the MTT test.
(§5) Human PBMC were cultured and stimulated with or without CBD, as described in Materials and Methods. The stimulus for TNF and IL-1 production was LPS, the stimulus for IFNγ production was PHA. The results are the mean of triplicate wells±SEM. ND=not done.

IL-1 = conditions: cited from earlier work
[3] = system: Thioglycollate-elicited granulocytes; assay: viability of granulocytes in the ROI test; assay type: cell-based, mouse (C57BL/6)
Experimental: Thioglycollate-elicited granulocytes were harvested from C57BL/6 mice by sterile lavage with PBS 18 hrs. after intraperitoneal injection with 1.5 ml thioglycollate medium (1.5 ml in 3% solution). The cells were washed and resuspended at 5×10^5 cells/ml in Hanks' buffered salt solution without phenol red, and distributed at 0.5 ml/tube into luminometer plastic tubes. […] The tube was inserted into luminometer (Biolumate LB 95 oot Berhold Wildbad Germany) which had been prewarmed to 37° C. The granulocyte luminol-enhanced chemiluminescence response to zymosan was considered as the positive control.

TNFα release = TNFα release by LPS-stimulated human PBMC; assay type: cell-based; conditions: for TNF α: LPS 10 ng/ml 24 hours
Experimental: as §3, §4, §5

serum TNFα = serum TNFα level after LPS stimulation (bioassay); assay type: in vivo, mouse (C57BL/6); conditions: 10 mg/kg (200 μg/mouse) ip or s.c. with 100 μg LPS ip; 90 min
Experimental: After 90 min. the mice were bled and serum TNFα level was determined by bioassay.

[4] = system: collagen induced arthritis (CIA); assay: acute CIA model, oral feeding of CBD; assay type: in vivo, mouse; conditions: 10 days
Experimental: The drug was administered by oral gavage. Control mice were fed vehicle (olive oil) along, as described in Materials and Methods. Results are expressed as a mean+/−SEM.
The doses used were 10 mg/kag, 25 mg/kg and 50 mg/kg (n=6 per group), corresponding to 2, 5, and 10 mg/kg i.p. respectively. Control mice were fed olive oil (n=6).

Sequence of CB2 (P34972 whole entry, species assumed): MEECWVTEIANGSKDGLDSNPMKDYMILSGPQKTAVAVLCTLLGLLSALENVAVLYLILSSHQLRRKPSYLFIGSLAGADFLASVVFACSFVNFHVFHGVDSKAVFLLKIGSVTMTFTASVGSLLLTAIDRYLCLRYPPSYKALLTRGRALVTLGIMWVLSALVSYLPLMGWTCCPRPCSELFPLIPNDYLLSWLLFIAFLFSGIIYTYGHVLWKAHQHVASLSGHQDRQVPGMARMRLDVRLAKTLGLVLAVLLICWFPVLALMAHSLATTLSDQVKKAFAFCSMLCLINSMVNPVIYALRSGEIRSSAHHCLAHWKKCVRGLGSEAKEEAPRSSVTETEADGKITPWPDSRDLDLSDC

## C=C(C)[C@@H]1CCC(C)=C[C@H]1c1c(O)cc(CCCCC)cc1O [CBD, Cannabidiol]
Spleen cells
  3H-thymidine uptake in MLR: slight decrease
TNFα
  TNFα production: decreased
TNF; CBD 0.1 μg/ml
  TNF, mean: 1963 pg/mL
TNF; CBD 1 μg/ml
  TNF, mean: 2089 pg/mL
TNF; CBD 20 μg/ml
  TNF, mean: 2271 pg/mL
TNF; first initial experiment
  TNFa release (in words): not suppressed
[1]; 5 mg/kg CBD, control mice 69%
  joints moderately or severely affected: 42%
[1]; 5 mg/kg CBD
  joints completely protected: 33%
[1]; 10 mg/kg CBD
  joints completely protected: 11%
IL-6
  IL-6 release (in words): dose-dependent inhibition
IL-6; CBD 0.1 μg/ml
  IL-6, mean: 281 ng/mL
IL-6; CBD 1 μg/ml
  IL-6, mean: 326 ng/mL
IL-6; CBD 20 μg/ml
  IL-6, mean: 125 ng/mL
schizophrenia
  antipsychotic effects in schizophrenia: antipsychotic effects
IL-10
  IL-10 release (in words): dose-dependent inhibition
IL-10; CBD 0.1 μg/ml
  IL-10, mean: 273 pg/mL
IL-10; CBD 1 μg/ml
  IL-10, mean: 249 pg/mL
IL-10; CBD 20 μg/ml
  IL-10, mean: 52 pg/mL
[2]
  efficacy in animal models predictive of antipsychotic activity: effective
CB2
  binding to peripheral receptor CB2: does not bind
Anticonvulsant effects
  anticonvulsant effects: anticonvulsant effects
IFNγ production; CBD 0.1 μg/ml
  IFNγ: 2062 ± 316 pg/mL
IFNγ production; CBD 1 μg/ml
  IFNγ: 1082 ± 75 pg/mL
IFNγ production; CBD 2.5 μg/ml
  IFNγ: 1171 ± 138 pg/mL
IFNγ production; CBD 5 μg/ml
  IFNγ: 791 ± 43 pg/mL
IFNγ production; CBD 10 μg/ml
  IFNγ: 150 ± 43 pg/mL
IL-1
  IL-1 production: decreased
[3]; CBD 6 μg/ml
  cell viability at the end of the experiment: All cells were viable
[3]; after 1-2 hours of CBD treatment, 6 μg/ml
  cells available (viable): about 100%
TNFα release; CBD 0.1 μg/ml, mean of triplicate wells ± SEM
  TNF α: 2959 ± 434 pg/mL
TNFα release; CBD 1 μg/ml, mean ± SEM
  TNF α: 2503 ± 181 pg/mL
TNFα release; CBD 2.5 μg/ml, mean ± SEM
  TNF α: 3071 ± 296 pg/mL
TNFα release; CBD 5 μg/ml, mean ± SEM
  TNF α: 4152 ± 499 pg/mL
TNFα release; CBD 10 μg/ml, mean ± SEM
  TNF α: 10,964 ± 1714 pg/ml
TNFα release; CBD 20 μg/ml, mean ± SEM
  TNF α: 15,071 ± 2594 pg/ml
TNFα release; CBD 30 μg/ml, mean ± SEM
  TNF α: 20,824 ± 1046 pg/ml
TNFα release; higher concentrations of CBD
  effect on LPS-induced TNFα release (in words): increased their release
TNFα release; lower concentrations of CBD (0.1 to 5 μg/ml)
  effect on LPS-induced TNFα release (in words): significantly suppressed
Serum TNFα
  serum TNFα level (in words): decreases serum TNFα production; also recorded: reduces serum TNFα levels
[4]; 25 mg/kg daily oral gavage
  suppression of arthritis (in words): significantly better than the control group; also recorded: optimal dose
[4]; daily oral gavage after onset of arthritis
  suppression of arthritis (in words): adequate suppression of the arthritis
